Test results from patent US20250051293A1, “NOVEL OXADIAZOLE DERIVATIVE AND USE THEREOF” (CELROS BIOTECH, priority 2021, published 2025).
pIC50: −log10 of the molar value.

Experiments:
BV2 cells = assay: NOX inhibition assay in BV2 cells (LPS-induced reactive oxygen species, lucigenin); format: cell-based, mouse; conditions: BV2 cells pre-treated 30 minutes, LPS 10 ng/ml, 0-10000 nM
Method: BV2 cells, a mouse microglial cell line, were washed with Hank's balanced salt solution (HBSS) and stabilized by incubation at 37° C. in HBSS for 30 minutes. Then, the compounds (compound of Example 1 or compound of Example 2) were treated at various concentrations (0 nM, 1 nM, 10 nM, 100 nM, 1000 nM, and 10000 nM). After 30 minutes, 10 ng/ml of lipopolysaccharide (LPS) and 200 μM of lucigenin were added to the cells. Lucigenin chemiluminescence induced by active oxygen (reactive oxygen species) was detected at 10-second intervals for 15 minutes using a luminometer (GLOMA, Promega).

human NOX2 = target: T1, human NOX2 (Homo sapiens, UniProt P04839); assay: Lucigenin chemiluminescence assay, drosophila membranes expressing hNOX2; format: biochemical; conditions: average of three repeats
T1 construct: made in house; host or cells: transgenic Drosophila (Da-GAL4 driven UAS-hNOX2, dDuox RNAi background); membranes from homogenized flies
T1 sequence (P04839 2-570 limits assumed): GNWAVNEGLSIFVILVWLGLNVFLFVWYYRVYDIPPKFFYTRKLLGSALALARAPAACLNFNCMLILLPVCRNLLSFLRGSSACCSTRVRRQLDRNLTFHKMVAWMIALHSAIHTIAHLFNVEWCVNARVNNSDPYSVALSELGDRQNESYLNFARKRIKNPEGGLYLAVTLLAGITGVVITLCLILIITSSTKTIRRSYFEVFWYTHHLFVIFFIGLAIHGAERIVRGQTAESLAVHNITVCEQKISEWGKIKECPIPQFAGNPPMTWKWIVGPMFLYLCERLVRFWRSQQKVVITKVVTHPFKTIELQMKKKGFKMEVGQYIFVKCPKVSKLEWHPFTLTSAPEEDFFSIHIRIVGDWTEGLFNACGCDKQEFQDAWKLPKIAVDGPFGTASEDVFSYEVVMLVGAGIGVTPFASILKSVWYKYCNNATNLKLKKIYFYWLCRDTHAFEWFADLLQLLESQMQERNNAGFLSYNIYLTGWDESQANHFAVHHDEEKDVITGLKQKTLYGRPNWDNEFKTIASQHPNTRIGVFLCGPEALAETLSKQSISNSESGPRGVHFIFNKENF
Method: Human NOX isozymes were provided from transgenic flies expressing human NOX isozymes from the daughterless (Da)-GAL4 promoter. The genotype of each fly line is shown below. • human NOX2:UAS-hNOX2/UAS-dDuox-RNAi; Da-GAL4/+ • human NOX4:UAS-hNOX4/UAS-dDuox-RNAi; Da-GAL4/+
Transgenic flies were homogenized in PBS containing protease inhibitors (aprotinin, leupeptin) to obtain drosophila membranes of each NOX isozyme. The membranes were incubated with the compounds (100 μM, 10 μM, 1 μM, 0.1 μM, 0.01 μM, 0.001 μM, and 0 μM) for 10 minutes in a shaker. Then, to the membranes, a mixture of 500 μM NADPH (R-nicotinamide adenine dinucleotide 2′-phosphate reduced tetrasodium salt hydrate; Sigma-Aldrich) and 400 μM lucigenin (N,N′-dimethyl-9,9-biacridinium dinitrate; Sigma-Aldrich) in 1× HEPES (4-(2-hydroxyethyl)-1-piperazineethanesulfonic acid) buffer was added. Lucigenin chemiluminescence was detected at 1-minute intervals for 10 minutes using a multimode microplate reader (SpectraMax iD3, Molecular Devices). IC50 values were calculated with Graph-Pad Prism 5 (GraphPad Software).
The lucigenin chemiluminescence assay was performed with drosophila membranes expressing hNOX1, hNOX2, and hNOX4. The assay was repeated three times and the IC50 values were averaged.

[1] = Cytotoxicity experiment (MTT assay) HepG2; format: cell-based; conditions: human, HepG2 cells
Method: HepG2 (human hepatocellular carcinoma) and HT-22 (mouse hippocampal neuronal cell line) were seeded at densities of 1×10^5 or 1.5×10^4 per well in a 48-well plate and incubated for at least 12 hours, then treated with compounds of Example 1 and Example 2 at various concentrations (0 nM, 1 nM, 10 nM, 100 nM, 1000 nM, 10000 nM, 100000 nM, and 1000000 nM) and incubated for 24 hours. MTT solution (Thiazolyl Blue Tetrazolium Bromide 2 mg/ml) was subsequently added at 30 μl per well. After incubation for 4 hours, the culture medium containing the MTT solution was removed and 300 μl of DMSO was added to dissolve the MTT-formazan. 100 μl of the solution in each well was transferred to a 96-well plate and the absorbance was measured at 570 nm. IC50 values were calculated with Graph-Pad Prism 5 (GraphPad Software). The cell viability of the groups treated with the compounds of Example 1 and Example 2 at each concentration was determined relative to control group in which HepG2 cells were treated with DMSO alone, in at least five replicates.

[2] = Metabolic stability in human liver microsomes; format: in vitro ADME; conditions: human liver microsomes 0.5 mg/ml, 1 μM, 30 minutes, 37° C., NADPH
Method: The stability of a drug may be predicted by using liver microsomes to determine the extent to which the drug is metabolized in the liver. […] Thus, a metabolic stability verification experiment was performed on the oxadiazole derivatives according to The present disclosure.
Specifically, sample treatment human liver microsomes (0.5 mg/ml), 0.1 M phosphate buffer (pH 7.4), and test compound at a concentration of 1 μM were added, and the mixture was pre-incubated at 37° C. for 5 minutes, followed by addition of NADPH Regeneration system solution and incubation at 37° C. for 30 minutes. An acetonitrile solution containing an internal standard (chlorpropamide) was then added to terminate the reaction, followed by centrifugation for 5 minutes (14,000 rpm, 4° C.). Then, the supernatant was injected into the LC-MS/MS system to analyze the substrate drug to evaluate the metabolic stability of the two compounds.
The HPLC column was an Acquity UPLC BEH Amide column (2.1×100 mm, 1.7 μm particle size; Waters, Ireland). The mobile phases were distilled water containing 0.1% formic acid (A) and acetonitrile containing 0.1% formic acid (B). Data analysis was performed using Analyst software (version 1.6.3).

Row | Structure (SMILES) | production of reactive oxygen species (BV2 cells) | pIC50 (human NOX2) | IC50 at 24 h [1] | Human (% ) remaining, microsomal stability [2]
1 | O=C(Nc1nnc(-c2cccc(Cl)c2)o1)c1cc(F)cc(C(F)(F)F)c1 [Example 1, N-(5-(3-chlorophenyl)-1,3,4-oxadiazol-2-yl)-3-fluoro-5-(trifluoromethyl)benzamide] | significantly reduced | 7.05 | 4.2 µM | 81.7%
2 | O=C(Nc1nnc(-c2ccccc2)o1)c1ccc(F)c(C(F)(F)F)c1 [Example 2, 4-fluoro-N-(5-phenyl-1,3,4-oxadiazol-2-yl)-3-(trifluoromethyl)benzamide] | significantly reduced | 6.59 | 1100 µM | >100%
